Read-outs that look alike come from different tables or passages of the source.
System: recombinant NL-Rluc virus
Experiment: Inhibition of HIV replication (NL-RLuc luciferase reporter virus, MT-2 cells)
Assay type: cell-based
Details: Human immunodeficiency virus 1, MT2, 120 h

Structure (SMILES) | EC50 (read-out: Activity) [µM] | EC50 (read-out: EC50 μM) [µM]
Cc1nc2cc(C(=O)NCCN3CCOCC3)nn2c(-c2cc(F)c3c(c2C)CCCO3)c1[C@H](OC(C)(C)C)C(=O)O [Example 88, (2S)-2-(tert-butoxy)-2-(7-(8-fluoro-5-methylchroman-6-yl)-5-methyl-2-((2-morpholinoethyl)carbamoyl)pyrazolo[1,5-a]pyrimidin-6-yl)acetic acid] | > 1 | 
CCCCc1ccc(CNC(=O)c2cc3nc(C)c([C@H](OC(C)(C)C)C(=O)O)c(-c4cc(F)c5c(c4C)CCCO5)n3n2)cc1 [Example 31, (2S)-2-(tert-butoxy)-2-(2-((4-butylbenzyl)carbamoyl)-7-(8-fluoro-5-methylchroman-6-yl)-5-methylpyrazolo[1,5-a]pyrimidin-6-yl)acetic acid] | < 0.1 | 
Cc1nc2cc(C(=O)NCCCC3CCOC3)nn2c(-c2cc(F)c3c(c2C)CCCO3)c1[C@H](OC(C)(C)C)C(=O)O (stereo partly drawn) [Example 132, (2S)-2-(tert-butoxy)-2-(7-(8-fluoro-5-methylchroman-6-yl)-5-methyl-2-((3-(tetrahydrofuran-3-yl)propyl)carbamoyl)pyrazolo[1,5-a]pyrimidin-6-yl)acetic acid] | 0.1 to 1 | 
CNC(=O)c1cc(F)ccc1CNC(=O)c1cc2nc(C)c([C@H](OC(C)(C)C)C(=O)O)c(-c3cc(F)c4c(c3C)CCCO4)n2n1 [Example 30, (2S)-2-(tert-butoxy)-2-(2-((4-fluoro-2-(methylcarbamoyl)benzyl)carbamoyl)-7-(8-fluoro-5-methylchroman-6-yl)-5-methylpyrazolo[1,5-a]pyrimidin-6-yl)acetic acid] | 0.1 to 1 | 3.2
Cc1nc2cc(C(=O)NCCc3ccc(F)cc3)nn2c(-c2cc(F)c3c(c2C)CCCO3)c1[C@H](OC(C)(C)C)C(=O)O [Example 57, (2S)-2-(tert-butoxy)-2-(7-(8-fluoro-5-methylchroman-6-yl)-2-((4-fluorophenethyl)carbamoyl)-5-methylpyrazolo[1,5-a]pyrimidin-6-yl)acetic acid] | < 0.1 | 
Cc1nc2cc(C(=O)NCc3ccc(Cl)cc3)nn2c(-c2cc(F)c3c(c2C)CCCO3)c1[C@H](OC(C)(C)C)C(=O)O [Example 46, (2S)-2-(tert-butoxy)-2-(2((4-chlorobenzyl)carbamoyl)-7-(8-fluoro-5-methylchroman-6-yl)-5-methylpyrazolo[1,5-a]pyrimidin-6-yl)acetic acid] | < 0.1 | 
Cc1nc2cc(C(=O)NCCc3ccccc3Cl)nn2c(-c2cc(F)c3c(c2C)CCCO3)c1[C@H](OC(C)(C)C)C(=O)O [Example 111, (2S)-2-(tert-butoxy)-2-(2-((2-chlorophenethyl)carbamoyl)-7-(8-fluoro-5-methylchroman-6-yl)-5-methylpyrazolo[1,5-a]pyrimidin-6-yl)acetic acid] | < 0.1 | 
Cc1nc2cc(C(=O)NCCC(C)(C)C)nn2c(N2CCC(C)(C)CC2)c1[C@H](OC(C)(C)C)C(=O)O [Example 152, (S)-2-(tert-Butoxy)-2-(2-((3,3-dimethylbutyl)carbamoyl)-7-(4,4-dimethylpiperidin-1-yl)-5-methylpyrazolo[1,5-a]pyrimidin-6-yl)acetic acid] | < 0.1 | 0.03
Cc1nc2cc(C(=O)N(C)CCC(C)C)nn2c(-c2cc(F)c3c(c2C)CCCO3)c1[C@H](OC(C)(C)C)C(=O)O [Example 98, (2S)-2-(tert-butoxy)-2-(7-(8-fluoro-5-methylchroman-6-yl)-2-(isopentyl(methyl)carbamoyl)-5-methylpyrazolo[1,5-a]pyrimidin-6-yl)acetic acid] | < 0.1 | 
CCCCOc1cc(F)ccc1CNC(=O)c1cc2nc(C)c([C@H](OC(C)(C)C)C(=O)O)c(-c3ccc4c(c3Cl)NCCO4)n2n1 [Example 143, (2S)-2-(tert-Butoxy)-2-(2-((2-butoxy-4-fluorobenzyl)carbamoyl)-7-(5-chloro-3,4-dihydro-2H-benzo[b][1,4]oxazin-6-yl)-5-methylpyrazolo[1,5-a]pyrimidin-6-yl)acetic acid] | < 0.1 | 0.028
CON(Cc1ccc(F)cc1)C(=O)c1cc2nc(C)c([C@H](OC(C)(C)C)C(=O)O)c(-c3cc(F)c4c(c3C)CCCO4)n2n1 [Example 17, (2S)-2-(tert-butoxy)-2-(7-(8-fluoro-5-methylchroman-6-yl)-2-((4-fluorobenzyl)(methoxy)carbamoyl)-5-methylpyrazolo[1,5-a]pyrimidin-6-yl)acetic acid] | < 0.1 | 
Cc1nc2cc(C(=O)NCCC(C)(C)C)nn2c(/C=C/CC(C)C)c1[C@H](OC(C)(C)C)C(=O)O [Example 150, (S,E)-2-(tert-Butoxy)-2-(2-((3,3-dimethylbutyl)carbamoyl)-5-methyl-7-(4-methylpent-1-en-1-yl)pyrazolo[1,5-a]pyrimidin-6-yl)acetic acid] | > 1 | 1.2
Cc1nc2cc(C(=O)NCc3cccc(Cl)c3)nn2c(-c2cc(F)c3c(c2C)CCCO3)c1[C@H](OC(C)(C)C)C(=O)O [Example 54, (2S)-2-(tert-butoxy)-2-(2((3-chlorobenzyl)carbamoyl)-7-(8-fluoro-5-methylchroman-6-yl)-5-methylpyrazolo[1,5-a]pyrimidin-6-yl)acetic acid] | < 0.1 | 
Cc1nc2cc(C(=O)NCCOc3ccccc3)nn2c(-c2cc(F)c3c(c2C)CCCO3)c1[C@H](OC(C)(C)C)C(=O)O [Example 55, (2S)-2-(tert-butoxy)-2-(7-(8-fluoro-5-methylchroman-6-yl)-5-methyl-2-((2-phenoxyethyl)carbamoyl)pyrazolo[1,5-a]pyrimidin-6-yl)acetic acid] | < 0.1 | 
Cc1nc2cc(C(=O)N(C)CCCn3ccnc3)nn2c(-c2cc(F)c3c(c2C)CCCO3)c1[C@H](OC(C)(C)C)C(=O)O [Example 37, (2S)-2-(2-((3-(1H-imidazol-1-yl)propyl)(methyl)carbamoyl)-7-(8-fluoro-5-methylchroman-6-yl)-5-methylpyrazolo[1,5-a]pyrimidin-6-yl)-2-(tert-butoxy)acetic acid] | > 1 | 20
Cc1nc2cc(C(=O)NCc3ccc(OC(F)(F)F)cc3)nn2c(-c2cc(F)c3c(c2C)CCCO3)c1[C@H](OC(C)(C)C)C(=O)O [Example 44, (2S)-2-(tert-butoxy)-2-(7-(8-fluoro-5-methylchroman-6-yl)-5-methyl-2-((4-(trifluoromethoxy)benzyl)carbamoyl)pyrazolo[1,5-a]pyrimidin-6-yl)acetic acid] | < 0.1 | 
Cc1nc2cc(C(=O)NCCC(C)(C)C)nn2c(-c2cc3c(cc2F)OCCN3)c1[C@H](OC(C)(C)C)C(=O)O [Example 146, (2S)-2-(tert-Butoxy)-2-(2-((3,3-dimethylbutyl)carbamoyl)-7-(7-fluoro-3,4-dihydro-2H-benzo[b][1,4]oxazin-6-yl)-5-methylpyrazolo[1,5-a]pyrimidin-6-yl)acetic acid] | < 0.1 | 
Cc1nc2cc(C(=O)N3CCC(CCO)CC3)nn2c(-c2cc(F)c3c(c2C)CCCO3)c1[C@H](OC(C)(C)C)C(=O)O [Example 106, (2S)-2-(tert-butoxy)-2-(7-(8-fluoro-5-methylchroman-6-yl)-2-(4-(2-hydroxyethyl)piperidine-1-carbonyl)-5-methylpyrazolo[1,5-a]pyrimidin-6-yl)acetic acid] | > 1 | 
Cc1nc2cc(C(=O)N(C)Cc3ccccc3)nn2c(-c2cc(F)c3c(c2C)CCCO3)c1[C@H](OC(C)(C)C)C(=O)O [Example 33, (2S)-2-(2-(benzyl(methyl)carbamoyl)-7-(8-fluoro-5-methylchroman-6-yl)-5-methylpyrazolo[1,5-a]pyrimidin-6-yl)-2-(tert-butoxy)acetic acid] | < 0.1 | 
CCc1cc(CNC(=O)c2cc3nc(C)c([C@H](OC(C)(C)C)C(=O)O)c(-c4cc(F)c5c(c4C)CCCO5)n3n2)ccc1F [Example 24, (2S)-2-(tert-butoxy)-2-(2-((3-ethyl-4-fluorobenzyl)carbamoyl)-7-(8-fluoro-5-methylchroman-6-yl)-5-methylpyrazolo[1,5-a]pyrimidin-6-yl)acetic acid] | < 0.1 | 
Cc1nc2cc(C(=O)NCc3cccc(C(F)(F)F)c3)nn2c(-c2cc(F)c3c(c2C)CCCO3)c1[C@H](OC(C)(C)C)C(=O)O [Example 64] | < 0.1 | 
Cc1nc2cc(C(=O)NCCOC(C)(C)C)nn2c(-c2cc(F)c3c(c2C)CCCO3)c1[C@H](OC(C)(C)C)C(=O)O [Example 103, (2S)-2-(tert-butoxy)-2-(2-((2-(tert-butoxy)ethyl)carbamoyl)-7-(8-fluoro-5-methylchroman-6-yl)-5-methylpyrazolo[1,5-a]pyrimidin-6-yl)acetic acid] | 0.1 to 1 | 0.073
Cc1nc2cc(C(=O)NCCC(C)(C)C)nn2c(-c2ccc3c(c2Cl)NCCO3)c1[C@H](OC(C)(C)C)C(=O)O [Example 144, (2S)-2-(tert-Butoxy)-2-(7-(5-chloro-3,4-dihydro-2H-benzo[b][1,4]oxazin-6-yl)-2-((3,3-dimethylbutyl)carbamoyl)-5-methylpyrazolo[1,5-a]pyrimidin-6-yl)acetic acid] | 0.1 to 1 | 0.122
Cc1nc2cc(C(=O)N(C)Cc3ccc(F)cc3)nn2c(-c2cc(F)c3c(c2C)CCCO3)c1[C@H](OC(C)(C)C)C(=O)O [Example 8, (2S)-2-(tert-butoxy)-2-(7-(8-fluoro-5-methylchroman-6-yl)-2-((4-fluorobenzyl)(methyl)carbamoyl)-5-methylpyrazolo[1,5-a]pyrimidin-6-yl)acetic acid] | < 0.1 | 
Cc1nc2cc(C(=O)NCCC3CCN(Cc4ccccc4)CC3)nn2c(-c2cc(F)c3c(c2C)CCCO3)c1[C@H](OC(C)(C)C)C(=O)O [Example 72, (2S)-2-(2-((2-(1-benzylpiperidin-4-yl)ethyl)carbamoyl)-7-(8-fluoro-5-methylchroman-6-yl)-5-methylpyrazolo[1,5-a]pyrimidin-6-yl)-2-(tert-butoxy)acetic acid] | 0.1 to 1 | 0.668
Cc1nc2cc(C(=O)Nc3cc(-c4ccccc4)nn3C)nn2c(-c2cc(F)c3c(c2C)CCCO3)c1[C@H](OC(C)(C)C)C(=O)O [Example 84, (2S)-2-(tert-butoxy)-2-(7-(8-fluoro-5-methylchroman-6-yl)-5-methyl-2-((1-methyl-3-phenyl-1H-pyrazol-5-yl)carbamoyl)pyrazolo[1,5-a]pyrimidin-6-yl)acetic acid] | < 0.1 | 

— patent publication US8791108B2, “Inhibitors of human immunodeficiency virus replication” (priority 2011, dated 2014)
